The record followed here is a melting point compilation (Tetko et al.; mined from patent text by program, amines drawn as free bases though some values may be those of a salt).

A value given as a limit tells only on which side of the number the result lay.

In the case of `O=C(Nc1ccc(-n2nc(C(F)(F)F)cc2C(F)(F)F)cc1)C1=CCCC1`, the melting point (commonly the temperature of the solid-liquid transition) is 174 to 175 °C.

With `N#CCN1CCN(c2n[nH]c3ccccc23)CC1`, the melting point lay in the range of 121 to 123 °C.

The compound `C=C(c1ccc(OC)c(C)c1)c1ccc(C)c(Br)c1` registered a melting point of 48 to 51 °C.

Turning to `COC(=O)C1C(c2ccc(F)c(C)c2)=CC2(CC1(C)C)SCCCS2` (stereo not drawn), the melting point was 100 to 101 °C.

The compound `O=C(CCCCCCC(=O)Oc1cc(O)cc(O)c1)Oc1cc(O)cc(O)c1` came in with a melting point of 185 to 188 °C.

The compound `CSc1ccc(/C=C2\N=C(C)OC2=O)cc1` came in with a melting point of 154 to 155 °C.

Compound `CC(=O)NCC1=CC(c2ccccc2)Cc2c1ccc(O)c2O` (stereo not drawn) gave a melting point of 238 °C.

Compound `O=C(O)c1ccc(OCCNC(=O)C2Cc3ccccc3N2S(=O)(=O)c2ccc(-c3cccc(C(F)(F)F)c3)cc2)cc1F` (stereo not drawn) displayed a melting point of 97 to 105 °C.

For the compound `COCOc1ccc(CO)c2cccc(C)c12`, the melting point was 91 to 93 °C.

For the compound `CCCCc1nc2cccc(C(=O)OC)c2n1Cc1ccc(-n2cccc2C#N)cc1`, the melting point was 128 to 129 °C.

Compound `CCOC(=O)C1C2C(=O)N(Cc3ccccc3)C(=O)C12` (stereo not drawn) yielded a melting point of 190 °C.

As for `CNCCOc1ccc(C2=C(c3ccccc3)CCCc3cc(OC4CCCCO4)ccc32)cc1` (stereo not drawn), the melting point is 133 to 137 °C.

Compound `Cc1cccc(OC2CCOC2=O)c1[N+](=O)[O-]` (stereo not drawn) showed a melting point of 82 to 84 °C.

`O=C1c2ccccc2C(=O)c2c1oc1c2ccc2ccc(O)cc21` yielded a melting point of 332 °C.

Regarding `CC(C)(C)OC(=O)C=C1CN=C(c2ccccc2F)c2cc(Cl)ccc2N1`, the melting point is 158 to 160 °C.

`Nc1ccc(F)c(-n2cc(C(=O)O)c(=O)c3cc(F)c(F)c(Cl)c32)n1` gave a melting point of 228 to 230 °C.

`CC(C)(c1ccc(Oc2ccc(N=C=O)cc2)cc1)c1ccc(Oc2ccc(N=C=O)cc2)cc1`: the melting point fell in the range of 68 to 69 °C.

`CCOCc1nc2c(N)nc3ccccc3c2n1CCNC(=O)CCCCC1SCC2NC(=O)NC21` (stereo not drawn) returned a melting point of 171 to 175 °C.

Turning to `O=C1CCc2cc(C3=NNC(=O)C4CCC34)ccc2N1` (stereo not drawn), the melting point lay in the range of 349 to 353 °C.

For the compound `Cc1ccc(NC(=S)Nc2ncccc2OCc2c(F)cccc2Cl)cc1`, the melting point fell in the range of 138 to 140 °C.

`CCCCC(=O)c1[nH]c(=O)[nH]c1C` registered a melting point of 222 to 224 °C.

For `CC(C)(C)OC(=O)CN1CCCNc2c1c(=O)c2=O`, the melting point fell in the range of 167 to 168 °C.

Consider `O=C1CC[C@H](CC(c2ccc(S(=O)(=O)C3CC3)cc2)c2nc(F)c(C(=O)C3CCC3)[nH]2)C1` (stereo partly drawn), for which the melting point lay in the range of 85 to 88 °C.

`COC(=O)c1cccc2c1ccn2S(C)(=O)=O` displayed a melting point of 102 to 104 °C.

Regarding `COc1ccc(CN(Cc2ccc(OC)cc2)c2nc(Cl)c3ncn(Cc4ccc(OC)cc4)c3n2)cc1`, the melting point was 157 to 159 °C.

The compound `Cc1c(C(=O)c2cccc(O)c2)sc(N)c1C(=O)OC(C)(C)C` yielded a melting point of 169 to 172 °C.

As to `COc1cc(OC)c2c(=O)[nH]c(-c3cccc(N4CCN(C(C)CO)CC4)n3)nc2c1` (stereo not drawn), the melting point lay in the range of 202 to 204 °C.

Compound `O=C1N(Cc2ccc3nonc3c2)c2ccccc2C12COc1cc3c(cc12)OCO3` (stereo not drawn) returned a melting point of 163 to 165 °C.

Compound `CC(=O)N(O)Cc1cccc(C#Cc2ccccc2)c1` returned a melting point of 91 to 93 °C.

In turn, `Cc1c(Cl)nc2sc(S(=O)(=O)Cc3ccccc3)nn2c1=O` had a melting point of 211 to 213 °C.

The compound `Cc1cc2oc(C(N)=O)cc(=O)c2c(C)c1Cl` displayed a melting point greater than 300 °C.

Regarding `CNC(=S)NCCN1CCC(Nc2nc3cncnc3n2Cc2ccc(F)cc2)CC1`, the melting point was 206 °C.

The compound `OCCC(=C(c1ccccc1)c1ccccc1)c1ccccc1` had a melting point of 117 to 119 °C.

The compound `COc1cc(OC)c(-c2nc(C)c(-c3cccnc3)[nH]2)cc1Br` came in with a melting point of 246 to 248 °C.

With `COC(=O)c1c(C(F)F)nc(C(F)(F)F)c(C2CC(C)N(O)C2)c1CC1CC1` (stereo not drawn), the melting point is 142 to 144 °C.

For the compound `Cc1nc(-c2ccc(OCc3cccc(Cl)c3)cc2)no1`, the melting point lay in the range of 96 to 98 °C.

On to `CCOC(=O)c1cc(=O)cc(-c2ccc(O)cc2)o1`, for which the melting point was in the range of 213 to 215 °C.

Compound `CCOC(=O)c1ccc(OC(=O)CCCC(=O)Oc2ccc(C(=O)OCC)cc2)cc1` displayed a melting point of 81 to 82 °C.

The compound `C[C@@H](F)c1nc(N)nc(N[C@H]2c3ccccc3C[C@@H]2C)n1` yielded a melting point of 146 to 150 °C.

In the case of `CC(=Cc1ccc(-n2ccnc2)cc1)[N+](=O)[O-]`, the melting point was in the range of 119 to 120 °C.

Consider `C[C@H](C(=O)c1ccccc1F)n1ccn(-c2ccc(OC(F)(F)C(F)F)cc2)c1=O`, for which the melting point was 78 to 79 °C.

`COC1(C)CCc2c(C)c(OC(C)=O)c(C)c(C)c2O1` (stereo not drawn) registered a melting point of 71 to 72.5 °C.

The compound `COC(=O)c1ccc(-c2ccc(C#N)cc2)nc1` came in with a melting point of 142 to 144 °C.

`CCCCc1nc2cc(Cl)c(Cl)c(C(=O)O)c2n1Cc1ccccc1Cl` displayed a melting point of 240 °C.

Compound `O=C(C=C1C(=O)N(c2ccccc2)C(=O)N1c1ccccc1)Nc1ccccc1` yielded a melting point of 214 °C.

As to `O=C(O)c1cc(-n2c(-c3ccccc3)cc3c2CCCC3)c(C(F)(F)F)cc1O`, the melting point was 188 to 190 °C.

`Cc1cc(-c2nc(-c3cccs3)c[nH]2)ccc1O` returned a melting point of 167 to 172 °C.

`COC(=O)c1ccccc1OCNC(=O)CCCCCNC(=O)OC(C)(C)C` displayed a melting point of 120 to 121 °C.

As to `O=[N+]([O-])c1ccc(SSc2nc3ccccc3s2)c(C(Cl)(Cl)Cl)c1`, the melting point amounted to 97 °C.

In turn, `O=C(NC1CC1)c1ccc(CCN2CC=C(c3c[nH]c(-c4ccc(F)cc4)c3-c3ccncc3)CC2)cc1` had a melting point of 226 to 228 °C.

Regarding `CC(=O)c1ccc2nccc(OS(=O)(=O)C(F)(F)F)c2c1`, the melting point turned out to be 94 °C.

The compound `Clc1ccc2c(ccn2C2=CCN(CCC3Cc4ccccc4C3)CC2)c1` registered a melting point of 93 to 94 °C.

With `CNc1ccc(C(=O)Nc2ccccc2[N+](=O)[O-])cc1`, the melting point is 187 °C.

For `COc1ccc(-c2coc3c(C)c(O)ccc3c2=O)cc1`, the melting point was 235 °C.

On to `COC(=O)c1c(C(=O)OC)c2sc3ccccc3n2c1-c1ccc(F)cc1`, for which the melting point is 186 to 187 °C.

Consider `CCCCCCCCCCCCCCCC(O)C(N)CO` (stereo not drawn), for which the melting point was 81 °C.

As for `CCC(C)(C)c1c(OCc2ncnn2C)nn2c(-c3ccccc3F)nncc12`, the melting point lay within 89 to 91 °C.

`CCN1c2ncc(OCc3ccccc3)cc2C(=O)N(C)c2ccc(Cl)nc21` yielded a melting point of 159 to 160 °C.

On to `NS(=O)(=O)c1ccc(-c2noc(-c3cnc4ccc(-c5ccc(C(F)(F)F)cc5)cn34)n2)s1`, for which the melting point turned out to be 280 °C.

For `COC(=O)CN1CCCC(Nc2ncc3ncnc(Nc4cccc(Br)c4)c3n2)C1` (stereo not drawn), the melting point is 113 °C.

On to `Cc1ccc(C=CC(=O)C=Cc2ccc(C)cc2)cc1`, for which the melting point fell in the range of 174 to 176 °C.

`Nc1nc2c(OCCO)cccc2o1` returned a melting point of 124 to 126 °C.

Regarding `COc1ccc(N2C(=O)c3ccc(Cl)cc3C2CC(=O)N2CCN(C)CC2)cc1` (stereo not drawn), the melting point fell in the range of 169 to 171 °C.

`CCN1c2ncccc2C(=O)Nc2c(C)cc(N3CCC(OC(C)=O)C3)nc21` (stereo not drawn) returned a melting point of 188 to 190 °C.

`COc1ccc(C(=O)c2ccccc2F)c(Cl)c1` displayed a melting point of 77 to 79 °C.

On to `O=C(O)C1c2ccccc2OCc2ncccc21` (stereo not drawn), for which the melting point lay within 139 to 140 °C.

`Cc1ccc(SCC2=NOCN2)cc1` had a melting point of 85 °C.

For `COc1ccc2c(c1)Nc1cccc(S(=O)(=O)N(C)C)c1S2`, the melting point was 196 to 198 °C.

The compound `COc1ccccc1COc1nc2c(oc3ccccc32)c(-c2ccc3c(c2)OCCO3)c1C(=O)O` gave a melting point of 179 °C.

`COC(=O)CCCc1cc2cc(C(F)(F)F)ccc2n1S(=O)(=O)c1cccc(C(C)(C)C)c1` displayed a melting point of 84 °C.

As to `CCn1cc(C(=O)O)c(=O)c2cc(F)c(N3Cc4ccc(C(=O)OC)cc4C3)cc21`, the melting point is greater than 300 °C.

Turning to `COc1cc(C(C)(C)C)c(O)c(C(=O)Nc2ccc(S(=O)(=O)C(F)(F)F)cc2Cl)c1C`, the melting point lay in the range of 121 to 122 °C.

As for `COC(=O)C(=O)c1ccc(S(=O)CCOc2ccc3ccccc3c2)cc1` (stereo not drawn), the melting point lay within 129 to 130 °C.

`COCc1cn(-c2ccccc2)nc1OCc1ccc(OCc2nc(-c3ccco3)oc2C)c(OC)c1` showed a melting point of 121 to 122 °C.

Compound `C=CCN(c1ccccc1CC(=O)O)c1c(Cl)cccc1Cl` had a melting point of 148 °C.

For the compound `CSc1ccc(C(=O)c2cc(-c3ccc(S(C)(=O)=O)cc3)c(N3CCOCC3)s2)cc1`, the melting point was determined as 160 °C.

`OC(CCCl)COc1cccc(C(F)(F)F)c1` (stereo not drawn) came in with a melting point of 50 to 52 °C.

`COC(=O)c1cn2c(n1)COc1c(OC)cccc1-2` gave a melting point of 188 to 190 °C.

Take `NNC(=O)c1cc2c(Oc3ccc(Cl)cc3)cncc2s1`: the melting point is 197 to 199 °C.

In turn, `CN(CCc1cn(C(=O)OCc2ccccc2)c2ccc([N+](=O)[O-])cc12)C(=O)C(F)(F)F` registered a melting point of 107 to 109 °C.

Compound `CCCCOc1ccc(-n2cc(C(=O)O)cn2)cc1C#N` returned a melting point of 200 to 202 °C.

The compound `Oc1c(Cl)c(Cl)c(-c2c(Cl)c(Cl)c(O)c(Cl)c2Cl)c(Cl)c1Cl` had a melting point of 94 to 96 °C.

The compound `CNS(=O)(=O)c1ccc(Cl)c(C)c1Cl` returned a melting point of 118 °C.

As to `O=C(/C=C/c1cccc(S(=O)(=O)N2CCN(CCc3ccc4ccccc4c3)CC2)c1)NO`, the melting point turned out to be 184 °C.

The compound `CN(C)C1(c2ccccc2)CCC(=CC(=O)NCCCCCc2c[nH]c3ccccc23)CC1` (stereo not drawn) gave a melting point of 68 to 72 °C.

For the compound `COc1ccc(C(=O)c2c(Cl)cc(Cl)cc2Cl)cc1Cc1ccc(=O)[nH]n1`, the melting point was 179 to 180 °C.

`COc1cc2c(cc1C(F)(F)F)N(C(=O)Nc1cccc(-c3cnccc3C)c1)CC2` gave a melting point of 178 to 180 °C.

As for `COc1cc(C)c(Br)cc1C`, the melting point is 38.4 °C.
